Results published in ChEMBL document CHEMBL1201862, “PubChem BioAssay data set” (2004).
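Each compound was tested at five concentrations against cells in 96-well plates for 48 hours. The concentration for 50% growth inhibition is given as GI50.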 Active and inactive are the calls of the source. Rule as the data show it: active = GI50 up to about 1.1 µM and inactive = higher.

Columns and labels:
Assay in all cases: inhibition of tumour cell growth, NCI panel, 48 h
MOLT-4 = test system: MOLT-4
SNB-75 = test system: SNB-75
MDA-N = test system: MDA-N
NCI-H226 = test system: NCI-H226
SF-539 = test system: SF-539
OVCAR-8 = test system: OVCAR-8
SW-620 = test system: SW-620
A498 = test system: A498
HOP-62 = test system: HOP-62
NCI-H460 = test system: NCI-H460
MCF7 = test system: MCF7
LOX IMVI = test system: LOX IMVI
ACHN = test system: ACHN
SK-OV-3 = test system: SK-OV-3
IGROV-1 = test system: IGROV-1
Malme-3M = test system: Malme-3M
M14 = test system: M14
SN12C = test system: SN12C
HCC 2998 = test system: HCC 2998
UACC-257 = test system: UACC-257

Measured: GI50

CC1(C)C2CCC(=O)C1CC2 (centres undefined)
inactive: MOLT-4 > 100 µM | SNB-75 > 100 µM | MDA-N > 100 µM | NCI-H226 > 100 µM | SF-539 > 100 µM | OVCAR-8 > 100 µM | SW-620 > 100 µM | A498 > 100 µM | HOP-62 > 100 µM | NCI-H460 > 100 µM | MCF7 > 100 µM | LOX IMVI > 100 µM | ACHN > 100 µM | SK-OV-3 > 100 µM | IGROV-1 > 100 µM | Malme-3M > 100 µM | M14 > 100 µM | SN12C > 100 µM | HCC 2998 > 100 µM | UACC-257 > 100 µM

COc1ccc([C@H]2C=C(c3cc(F)c(Cl)cc3Cl)NC(=S)N2)cc1
inactive: MOLT-4 17.7 µM | SNB-75 18.2 µM | MDA-N 11.1 µM | NCI-H226 56.1 µM | SF-539 42.4 µM | OVCAR-8 40.3 µM | SW-620 30.9 µM | A498 28.1 µM | HOP-62 38.6 µM | NCI-H460 20.1 µM | MCF7 32.6 µM | LOX IMVI 37.3 µM | ACHN 36.9 µM | SK-OV-3 44.1 µM | IGROV-1 31.4 µM | Malme-3M 40.6 µM | M14 32.5 µM | SN12C 21.3 µM | HCC 2998 23.9 µM | UACC-257 24.9 µM

CCc1c(N=[N+]=[N-])c2ccccc2oc1=O
inactive: MOLT-4 > 100 µM | SNB-75 69.3 µM | MDA-N > 100 µM | NCI-H226 > 100 µM | SF-539 > 100 µM | OVCAR-8 > 100 µM | SW-620 > 100 µM | A498 > 100 µM | HOP-62 > 100 µM | NCI-H460 > 100 µM | MCF7 > 100 µM | LOX IMVI > 100 µM | ACHN > 100 µM | SK-OV-3 > 100 µM | IGROV-1 49.7 µM | Malme-3M > 100 µM | M14 > 100 µM | SN12C > 100 µM | HCC 2998 > 100 µM | UACC-257 > 100 µM

Cc1ccc2nc(N/N=C/c3cccc(C)n3)cc(C)c2c1
inactive: SNB-75 19.7 µM | MDA-N 16.3 µM | NCI-H226 24.7 µM | SF-539 17.8 µM | OVCAR-8 20.5 µM | SW-620 17.1 µM | A498 17.9 µM | HOP-62 16 µM | NCI-H460 6.89 µM | MCF7 13.6 µM | LOX IMVI 15.1 µM | ACHN 15.7 µM | SK-OV-3 15.4 µM | IGROV-1 13.9 µM | Malme-3M 16 µM | M14 24.2 µM | SN12C 17.2 µM | HCC 2998 12.6 µM | UACC-257 16.9 µM

O=C1C[C@H](COCc2ccccc2)NC(=O)C[C@H](COCc2ccccc2)NC(=O)C[C@H](COCc2ccccc2)N1
inactive: MOLT-4 5.9 µM | SNB-75 2.55 µM | MDA-N > 100 µM | NCI-H226 > 100 µM | SF-539 15.3 µM | OVCAR-8 > 100 µM | SW-620 > 100 µM | A498 12 µM | HOP-62 17.9 µM | NCI-H460 > 100 µM | MCF7 > 100 µM | LOX IMVI > 100 µM | ACHN 16.4 µM | SK-OV-3 19.5 µM | IGROV-1 > 100 µM | Malme-3M > 100 µM | M14 > 100 µM | SN12C > 100 µM | HCC 2998 > 100 µM | UACC-257 > 100 µM

CCOC(=O)c1cccc(NC(=O)CI)c1
active: MOLT-4 0.0284 µM | MDA-N 0.211 µM | NCI-H226 0.601 µM | SF-539 0.65 µM | OVCAR-8 0.264 µM | SW-620 0.207 µM | MCF7 0.394 µM | LOX IMVI 0.123 µM | ACHN 0.682 µM | SK-OV-3 0.918 µM | IGROV-1 0.338 µM | M14 0.23 µM | SN12C 0.29 µM
inactive: SNB-75 1.42 µM | A498 2.07 µM | HOP-62 1.36 µM | NCI-H460 1.2 µM | Malme-3M 1.21 µM | HCC 2998 2.24 µM | UACC-257 1.36 µM

CSCCCNC(=O)c1csc([C@@H](CSC)NC(=O)CCNC(=O)[C@@H](NC(=O)OCC(Br)(Br)Br)C(C)O)n1 (some centres undefined)
inactive: MOLT-4 > 100 µM | SNB-75 > 100 µM | MDA-N > 100 µM | NCI-H226 > 100 µM | SF-539 > 100 µM | OVCAR-8 > 100 µM | SW-620 > 100 µM | A498 > 100 µM | HOP-62 > 100 µM | NCI-H460 > 100 µM | MCF7 94.2 µM | LOX IMVI > 100 µM | ACHN > 100 µM | SK-OV-3 > 100 µM | IGROV-1 > 100 µM | Malme-3M > 100 µM | M14 > 100 µM | SN12C > 100 µM | HCC 2998 > 100 µM | UACC-257 > 100 µM
